# From ChEMBL document CHEMBL1142797, “2-Aminoquinazoline inhibitors of cyclin-dependent kinases” (Bioorg Med Chem Lett, 2005)
# System: HCT-116
# Assay: Antiproliferative activity against HCT116 cell lines of human
# Assay type: functional, cell-based
# Settings: not given
row,SMILES,IC50
1,Cc1cc(O)c(C2CCCC2)c2nc(Nc3ccc(N4CCNCC4)cc3)ncc12,0.1 µM

# Target: Cyclin-dependent kinase 4/cyclin D1 (Homo sapiens, UniProt P11802)
# Assay: Inhibitory concentration against CDK4/ Cyclin D
# Assay type: protein-complex assay
# Settings: not given
# Sequence of Cyclin-dependent kinase 4/cyclin D1 (P11802 whole entry): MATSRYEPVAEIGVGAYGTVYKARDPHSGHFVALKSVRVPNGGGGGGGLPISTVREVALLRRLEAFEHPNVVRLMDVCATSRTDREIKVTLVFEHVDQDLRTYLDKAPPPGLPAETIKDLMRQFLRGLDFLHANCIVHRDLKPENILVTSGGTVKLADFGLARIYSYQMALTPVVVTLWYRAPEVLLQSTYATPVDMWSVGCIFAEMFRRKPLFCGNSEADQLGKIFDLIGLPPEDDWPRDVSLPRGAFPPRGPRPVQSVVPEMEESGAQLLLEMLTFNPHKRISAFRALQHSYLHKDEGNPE
# Sequence of Cyclin-dependent kinase 4/cyclin D1 (P24385 whole entry, further chain): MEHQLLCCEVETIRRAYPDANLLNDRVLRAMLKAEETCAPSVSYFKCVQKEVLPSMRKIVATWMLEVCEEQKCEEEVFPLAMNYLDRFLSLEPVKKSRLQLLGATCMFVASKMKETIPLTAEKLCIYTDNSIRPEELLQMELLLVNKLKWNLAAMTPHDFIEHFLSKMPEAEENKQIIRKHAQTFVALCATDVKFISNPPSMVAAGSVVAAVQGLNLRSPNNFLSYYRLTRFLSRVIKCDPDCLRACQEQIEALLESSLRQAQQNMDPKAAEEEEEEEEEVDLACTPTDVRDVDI
row,SMILES,IC50
1,Oc1ccc2cnc(Nc3ccc(N4CCOCC4)cc3)nc2c1C1CCCC1,0.003 µM
2,COc1cc(C)c2cnc(Nc3ccc(N4CCN(C(C)=O)CC4)cc3)nc2c1C1CCCC1,4.13 µM
3,COc1ccc2cnc(Nc3ccc(N4CCNCC4)c(F)c3)nc2c1C(C)C,0.007 µM
4,Cc1cc(O)c(C2CCCC2)c2nc(Nc3ccc(N4CCNCC4)cc3)ncc12,0.02 µM
5,COc1ccc2cnc(Nc3ccccc3)nc2c1C1CCCC1,0.166 µM
6,COc1cc(C)c2cnc(Nc3ccc(N4CCNCC4)cc3)nc2c1C1CCCC1,0.055 µM
7,Oc1ccc2cnc(Nc3ccc(N4CCNCC4)cc3)nc2c1C1CCCC1,0.001 µM
8,Oc1ccc2cnc(Nc3ccc(N4CCNCC4)c(F)c3)nc2c1C1CCCC1,0.001 µM

# System: not listed separately
# Assay: Distribution coefficient at pH 7.4
# Assay type: physicochemical
# Settings: octanol/water
row,SMILES,logD
1,COc1cc(C)c2cnc(Nc3ccc(N4CCN(C(C)=O)CC4)cc3)nc2c1C1CCCC1,3.77
2,Cc1cc(O)c(C2CCCC2)c2nc(Nc3ccc(N4CCNCC4)cc3)ncc12,1.39
3,COc1cc(C)c2cnc(Nc3ccc(N4CCNCC4)cc3)nc2c1C1CCCC1,2.32
4,Cc1cc(=O)n(C2CCCC2)c2nc(Nc3ccc(N4CCNCC4)cc3)ncc12,0.63

# Target: Cyclin-dependent kinase 1/cyclin B1 (Homo sapiens, UniProt P06493)
# Sequence (P06493 whole entry): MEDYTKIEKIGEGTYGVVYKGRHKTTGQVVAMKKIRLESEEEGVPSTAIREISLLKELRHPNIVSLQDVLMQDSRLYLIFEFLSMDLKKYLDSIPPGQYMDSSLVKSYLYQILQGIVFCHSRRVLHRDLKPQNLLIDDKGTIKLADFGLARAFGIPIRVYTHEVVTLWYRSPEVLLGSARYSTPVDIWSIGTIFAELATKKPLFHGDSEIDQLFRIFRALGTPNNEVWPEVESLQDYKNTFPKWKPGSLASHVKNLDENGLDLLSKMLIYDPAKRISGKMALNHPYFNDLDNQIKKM
# Sequence (P14635 whole entry, further chain): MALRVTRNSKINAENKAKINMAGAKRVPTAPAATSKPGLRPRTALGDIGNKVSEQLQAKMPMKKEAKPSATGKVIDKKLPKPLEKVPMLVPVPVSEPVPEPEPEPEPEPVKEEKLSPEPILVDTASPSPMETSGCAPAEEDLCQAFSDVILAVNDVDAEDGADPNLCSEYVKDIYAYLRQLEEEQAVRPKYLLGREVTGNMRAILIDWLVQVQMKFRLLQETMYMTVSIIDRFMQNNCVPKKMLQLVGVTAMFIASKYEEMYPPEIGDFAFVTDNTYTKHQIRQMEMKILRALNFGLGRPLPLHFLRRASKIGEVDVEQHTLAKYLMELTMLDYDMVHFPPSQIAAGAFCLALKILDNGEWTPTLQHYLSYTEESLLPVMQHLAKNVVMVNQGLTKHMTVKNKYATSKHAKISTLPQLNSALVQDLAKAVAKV
# Assay: Inhibitory concentration against CDK1/ Cyclin B
# Assay type: protein-complex assay
# Settings: not given
row,SMILES,IC50
1,Oc1ccc2cnc(Nc3ccc(N4CCOCC4)cc3)nc2c1C1CCCC1,1.94 µM
2,COc1cc(C)c2cnc(Nc3ccc(N4CCN(C(C)=O)CC4)cc3)nc2c1C1CCCC1,> 5 µM
3,COc1ccc2cnc(Nc3ccc(N4CCCC4)cc3)nc2c1C(C)C,> 5 µM
4,COc1ccc2cnc(Nc3ccc(N4CCN(C(C)=O)CC4)cc3)nc2c1C1CCCC1,> 5 µM
5,COc1ccc2cnc(Nc3ccc(N4CCNCC4)c(F)c3)nc2c1C(C)C,0.743 µM
6,Cc1cc(O)c(C2CCCC2)c2nc(Nc3ccc(N4CCNCC4)cc3)ncc12,> 5 µM
7,COc1ccc2cnc(Nc3ccc(N4CCCCC4)cc3)nc2c1C1CCCC1,> 5 µM
8,COc1ccc2cnc(Nc3ccccc3)nc2c1C1CCCC1,0.801 µM
9,COc1cc(C)c2cnc(Nc3ccc(N4CCNCC4)cc3)nc2c1C1CCCC1,> 5 µM
10,Oc1ccc2cnc(Nc3ccc(N4CCNCC4)cc3)nc2c1C1CCCC1,0.03 µM
11,Cc1cc(=O)n(C2CCCC2)c2nc(Nc3ccc(N4CCNCC4)cc3)ncc12,> 5 µM
12,COc1ccc2cnc(Nc3ccc(N4CCCCC4)cc3)nc2c1C(C)C,> 5 µM
13,COc1ccc2cnc(Nc3ccc(N4CCCC4)cc3)nc2c1C1CCCC1,> 5 µM
14,Oc1ccc2cnc(Nc3ccc(N4CCNCC4)c(F)c3)nc2c1C1CCCC1,0.761 µM

# Target: Cyclin-dependent kinase 2/cyclin E1 (Homo sapiens, UniProt P24941)
# Assay: Inhibitory concentration against CDK2/ Cyclin E
# Assay type: protein-complex assay
# Settings: not given
row,SMILES,IC50
1,Oc1ccc2cnc(Nc3ccc(N4CCOCC4)cc3)nc2c1C1CCCC1,0.635 µM
2,COc1cc(C)c2cnc(Nc3ccc(N4CCN(C(C)=O)CC4)cc3)nc2c1C1CCCC1,> 5 µM
3,COc1ccc2cnc(Nc3ccc(N4CCC(N)C4)cc3)nc2c1C1CCCC1 (stereo unspecified),0.775 µM
4,COc1ccc2cnc(Nc3ccc(N4CCCC4)cc3)nc2c1C(C)C,> 5 µM
5,COc1ccc2cnc(Nc3ccc(N4CCNCC4)c(F)c3)nc2c1C(C)C,0.655 µM
6,Cc1cc(O)c(C2CCCC2)c2nc(Nc3ccc(N4CCNCC4)cc3)ncc12,> 5 µM
7,COc1ccc2cnc(Nc3ccc(N4CCCCC4)cc3)nc2c1C1CCCC1,> 5 µM
8,COc1ccc2cnc(Nc3ccccc3)nc2c1C1CCCC1,0.65 µM
9,COc1cc(C)c2cnc(Nc3ccc(N4CCNCC4)cc3)nc2c1C1CCCC1,> 5 µM
10,Oc1ccc2cnc(Nc3ccc(N4CCNCC4)cc3)nc2c1C1CCCC1,0.32 µM
11,Oc1ccc2cnc(Nc3ccc(N4CCNCC4)c(F)c3)nc2c1C1CCCC1,0.27 µM

# System: not listed separately
# Assay: Inhibitory concentration against CDK2/ Cyclin A
# Settings: not given
row,SMILES,IC50
1,Oc1ccc2cnc(Nc3ccc(N4CCOCC4)cc3)nc2c1C1CCCC1,0.18 µM
2,COc1ccc2cnc(Nc3ccc(N4CCNCC4)cc3)nc2c1C1CCCC1,0.028 µM
3,CC(C)c1c(O)ccc2cnc(Nc3ccccc3)nc12,0.25 µM
4,COc1cc(C)c2cnc(Nc3ccc(N4CCN(C(C)=O)CC4)cc3)nc2c1C1CCCC1,> 5 µM
5,COc1ccc2cnc(Nc3ccc(N4CCC(N)C4)cc3)nc2c1C1CCCC1 (stereo unspecified),0.203 µM
6,COc1ccc2cnc(Nc3ccc(N4CCCC4)cc3)nc2c1C(C)C,1.6 µM
7,COc1ccc2cnc(Nc3ccc(N4CCOCC4)cc3)nc2c1C(C)C,0.665 µM
8,COc1ccc2cnc(Nc3ccc(N4CCNCC4)c(F)c3)nc2c1C(C)C,0.141 µM
9,COc1ccc2cnc(Nc3ccc(N4CCNCC4)cc3)nc2c1C(C)C,0.185 µM
10,COc1ccc2cnc(Nc3ccc(N4CCNCC4)c(F)c3)nc2c1C1CCCC1,0.062 µM
11,Cc1cc(O)c(C2CCCC2)c2nc(Nc3ccc(N4CCNCC4)cc3)ncc12,> 5 µM
12,COc1ccc2cnc(Nc3ccc(N4CCCCC4)cc3)nc2c1C1CCCC1,0.384 µM
13,COc1ccc2cnc(Nc3ccccc3)nc2c1C1CCCC1,0.202 µM
14,COc1ccc2cnc(Nc3ccc(N4CCC(N)C4)cc3)nc2c1C(C)C (stereo unspecified),0.296 µM
15,COc1cc(C)c2cnc(Nc3ccc(N4CCNCC4)cc3)nc2c1C1CCCC1,> 5 µM
16,COc1ccc2cnc(Nc3ccccc3)nc2c1C(C)C,0.253 µM
17,COc1ccc2cnc(Nc3ccc(N4CCN(C(=O)CN)CC4)cc3)nc2c1C1CCCC1,0.095 µM
18,COc1ccc2cnc(Nc3ccc(N4CCN(C(=O)CN)CC4)cc3)nc2c1C(C)C,0.191 µM
19,Oc1ccc2cnc(Nc3ccc(N4CCNCC4)cc3)nc2c1C1CCCC1,0.082 µM
20,COc1ccc2cnc(Nc3ccc(N4CCCCC4)cc3)nc2c1C(C)C,0.41 µM
21,COc1ccc2cnc(Nc3ccc(N4CCCC4)cc3)nc2c1C1CCCC1,> 5 µM
22,COc1ccc2cnc(Nc3ccc(N4CCOCC4)cc3)nc2c1C1CCCC1,0.384 µM
23,Oc1ccc2cnc(Nc3ccc(N4CCNCC4)c(F)c3)nc2c1C1CCCC1,0.112 µM
